We go through seven molecules from ChEMBL document CHEMBL5137039, “Therapeutic potentials and structure-activity relationship of 1,3-benzodioxole N-carbamothioyl carboxamide derivatives as selective and potent antagonists of P2X4 and P2X7 receptors” (Eur J Med Chem, 2022).

SMILES strings stand for the structures.

Data set [1] deals with T1, P2X purinoceptor 5 (Homo sapiens, UniProt Q93086). The data set can be described thus: Antagonist activity against human P2X5R stably transfected in human 1321N1 cells incubated for 30 mins by Fura-2 AM staining based calcium influx assay. The data set is classed as cell-based.
The target of data set [2] is T2, P2X purinoceptor 7 (Homo sapiens, UniProt Q99572).
T2 sequence (Q99572 whole entry): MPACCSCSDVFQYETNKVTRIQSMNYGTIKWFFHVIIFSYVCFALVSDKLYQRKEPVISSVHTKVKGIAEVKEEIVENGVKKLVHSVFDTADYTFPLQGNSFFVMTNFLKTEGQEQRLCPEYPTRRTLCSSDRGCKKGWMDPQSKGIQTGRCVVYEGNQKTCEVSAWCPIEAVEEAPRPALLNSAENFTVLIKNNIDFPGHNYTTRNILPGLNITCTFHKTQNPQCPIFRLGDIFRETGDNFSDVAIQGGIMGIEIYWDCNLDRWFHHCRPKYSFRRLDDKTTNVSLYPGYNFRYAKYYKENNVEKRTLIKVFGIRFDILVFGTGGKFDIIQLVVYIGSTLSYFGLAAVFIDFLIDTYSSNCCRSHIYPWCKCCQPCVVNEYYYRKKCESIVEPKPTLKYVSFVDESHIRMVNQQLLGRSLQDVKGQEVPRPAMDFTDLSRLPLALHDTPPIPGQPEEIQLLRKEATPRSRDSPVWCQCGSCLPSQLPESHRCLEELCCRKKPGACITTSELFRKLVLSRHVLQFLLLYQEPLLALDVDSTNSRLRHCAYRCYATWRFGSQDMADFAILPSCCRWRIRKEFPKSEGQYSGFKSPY
The data set can be described thus: Antagonist activity against human P2X7R stably transfected in human 1321N1 cells incubated for 30 mins by Fura-2 AM staining based calcium influx assay. The data set is classed as cell-based.

The target of a further data set is T3, P2X purinoceptor 4 (Homo sapiens, UniProt Q99571).
T3 sequence (Q99571 whole entry): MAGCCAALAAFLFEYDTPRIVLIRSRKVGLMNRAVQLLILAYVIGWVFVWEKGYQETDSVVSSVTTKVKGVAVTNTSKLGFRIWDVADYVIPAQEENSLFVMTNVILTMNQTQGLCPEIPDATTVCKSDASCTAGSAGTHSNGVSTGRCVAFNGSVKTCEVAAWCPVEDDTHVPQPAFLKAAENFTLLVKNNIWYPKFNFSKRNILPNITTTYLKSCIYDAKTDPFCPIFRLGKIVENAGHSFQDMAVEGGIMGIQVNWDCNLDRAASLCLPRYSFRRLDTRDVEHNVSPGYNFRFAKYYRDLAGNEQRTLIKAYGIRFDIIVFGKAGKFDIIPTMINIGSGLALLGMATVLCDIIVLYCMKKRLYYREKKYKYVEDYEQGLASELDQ
The data set can be described thus: Antagonist activity against human P2X4R stably transfected in human 1321N1 cells incubated for 30 mins by Fura-2 AM staining based calcium influx assay. It counts as cell-based.

Data set [3] concerns the target T4, P2X purinoceptor 7 (Homo sapiens) (UniProt Q99572).
T4 sequence (whole entry): T2 sequence (Q99572 whole entry)
The data set can be described thus: Antagonist activity against human P2X7R stably transfected in human 1321N1 cells assessed as BzATP Emax at 0.1 uM incubated for 30 mins by Fura-2 AM staining based calcium influx assay relative to control. It counts as cell-based. The settings on record: filed as antagonist.

In another data set the test system is HEK293. The data set can be described thus: Cytotoxicity against HEK293 cells assessed as reduction in cell viability at 50 uM after 24 hrs by MTT assay relative to control. It counts as toxicity, cell-based. The settings on record: human, hek293, 24 h. (Formazan colour is commonly taken as a measure of viable cells.)
Data set [4] has as its target T5, P2X purinoceptor 2 (Homo sapiens) (UniProt Q9UBL9).
T5 sequence (whole entry): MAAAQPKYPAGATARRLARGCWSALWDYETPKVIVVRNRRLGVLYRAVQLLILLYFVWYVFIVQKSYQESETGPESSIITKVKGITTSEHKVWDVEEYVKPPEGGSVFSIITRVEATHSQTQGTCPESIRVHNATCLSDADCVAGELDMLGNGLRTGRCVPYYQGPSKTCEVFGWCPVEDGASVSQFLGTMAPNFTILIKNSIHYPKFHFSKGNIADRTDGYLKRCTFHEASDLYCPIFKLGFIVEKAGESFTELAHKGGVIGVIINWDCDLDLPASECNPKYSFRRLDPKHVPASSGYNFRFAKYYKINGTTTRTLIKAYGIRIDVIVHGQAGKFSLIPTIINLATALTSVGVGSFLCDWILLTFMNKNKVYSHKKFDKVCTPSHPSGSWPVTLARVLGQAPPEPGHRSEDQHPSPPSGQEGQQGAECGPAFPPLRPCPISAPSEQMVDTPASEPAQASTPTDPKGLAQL
The data set can be described thus: Antagonist activity against human P2X2R stably transfected in human 1321N1 cells at 50 uM incubated for 30 mins by Fura-2 AM staining based calcium influx assay relative to control. It counts as cell-based. Also noted: scale not given: the % may be the effect or the level left.

Data set [5] in a line: Cytotoxicity against human 1321N1 cells assessed as reduction in cell viability at 50 uM after 24 hrs by MTT assay relative to control. The data set is classed as toxicity, cell-based. As to conditions: 1321n1, 24 h.
Data set [6] concerns the target T1, P2X purinoceptor 5. The data set is described as follows: Antagonist activity against human P2X5R stably transfected in human 1321N1 cells at 50 uM incubated for 30 mins by Fura-2 AM staining based calcium influx assay relative to control. The data set is classed as cell-based. Details: scale not given: the % may be the effect or the level left.
In a further data set the test system is HeLa. The data set can be described thus: Cytotoxicity against human HeLa cells assessed as reduction in cell viability at 50 uM after 24 hrs by MTT assay relative to control. It counts as toxicity, cell-based.
In data set [7] the target is T4, P2X purinoceptor 7 (Homo sapiens). The data set is described as follows: Antagonist activity against human P2X7R stably transfected in human 1321N1 cells assessed as BzATP Emax at 0.05 uM incubated for 30 mins by Fura-2 AM staining based calcium influx assay relative to control. It counts as cell-based. As to conditions: filed as antagonist.
Data set [8] shares this target. The data set can be described thus: Antagonist activity against human P2X7R stably transfected in human 1321N1 cells assessed as BzATP Emax at 0.2 uM incubated for 30 mins by Fura-2 AM staining based calcium influx assay relative to control. The data set is classed as cell-based.
Data set [9] addresses T2, P2X purinoceptor 7. The data set is described as follows: Antagonist activity against human P2X7R stably transfected in human 1321N1 cells assessed as reduction in BzATP-induced activity incubated for 5 to 10 mins by EtBr staining based fluorescence assay. The data set is classed as cell-based.
The target of the next data set is T6, P2X purinoceptor 2 (Homo sapiens, UniProt Q9UBL9).
T6 sequence (Q9UBL9 whole entry): T5 sequence (whole entry)
The data set is described as follows: Antagonist activity against human P2X2R stably transfected in human 1321N1 cells incubated for 30 mins by Fura-2 AM staining based calcium influx assay. The data set is classed as cell-based.

In data set [10] the target is T4, P2X purinoceptor 7 (Homo sapiens). The data set is described as follows: Antagonist activity against human P2X7R stably transfected in human 1321N1 cells at 50 uM incubated for 30 mins by Fura-2 AM staining based calcium influx assay relative to control. It counts as cell-based. Details: scale not given: the % may be the effect or the level left.
Data set [11] deals with T7, P2X purinoceptor 4 (Homo sapiens) (UniProt Q99571).
T7 sequence (whole entry): T3 sequence (Q99571 whole entry)
The data set can be described thus: Antagonist activity against human P2X4R stably transfected in human 1321N1 cells at 50 uM incubated for 30 mins by Fura-2 AM staining based calcium influx assay relative to control. It counts as cell-based. Details: scale not given: the % may be the effect or the level left.

In data set [12] the target is T7, P2X purinoceptor 4 (Homo sapiens). The data set can be described thus: Antagonist activity against human P2X4R stably transfected in human 1321N1 cells assessed as ATP Emax at 0.2 uM incubated for 30 mins by Fura-2 AM staining based calcium influx assay relative to control. The data set is classed as cell-based. As to conditions: filed as antagonist.
Data set [13] has the same target. The data set can be described thus: Antagonist activity against human P2X4R stably transfected in human 1321N1 cells assessed as ATP Emax at 0.05 uM incubated for 30 mins by Fura-2 AM staining based calcium influx assay relative to control. The data set is classed as cell-based. The settings on record: filed as antagonist.
Data set [14] has the same target. The data set can be described thus: Antagonist activity against human P2X4R stably transfected in human 1321N1 cells assessed as ATP Emax at 0.1 uM incubated for 30 mins by Fura-2 AM staining based calcium influx assay relative to control. The data set is classed as cell-based. The settings on record: filed as antagonist.

T1 sequence (Q93086 whole entry): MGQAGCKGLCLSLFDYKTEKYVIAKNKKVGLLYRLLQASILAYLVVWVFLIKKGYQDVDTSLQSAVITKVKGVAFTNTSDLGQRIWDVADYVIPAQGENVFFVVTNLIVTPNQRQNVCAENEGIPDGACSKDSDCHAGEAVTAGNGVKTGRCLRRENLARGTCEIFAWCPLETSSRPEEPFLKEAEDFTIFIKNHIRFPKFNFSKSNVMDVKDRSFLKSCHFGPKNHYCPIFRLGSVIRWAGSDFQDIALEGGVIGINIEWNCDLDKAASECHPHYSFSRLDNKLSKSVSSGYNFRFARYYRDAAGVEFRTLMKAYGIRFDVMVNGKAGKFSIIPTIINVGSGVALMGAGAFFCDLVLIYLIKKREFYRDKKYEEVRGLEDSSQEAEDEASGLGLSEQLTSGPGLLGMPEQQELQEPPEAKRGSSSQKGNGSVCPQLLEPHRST

As to `O=C(NC(=S)Nc1ccc([N+](=O)[O-])cc1)c1ccc2c(c1)OCO2`, the values for the IC50 at P2X purinoceptor 5 [1], at P2X purinoceptor 7 [2] and on P2X purinoceptor 4 were 1650 nM, 1890 nM and 3760 nM, respectively.
Turning to `O=C(NC(=S)Nc1cccc2cccnc12)c1ccc2c(c1)OCO2`, the figures for the Emax in data set [3], in [7] and in data set [8] were 68%, 83% and 29%, respectively. For the same molecule, the Activity amounted to 1.42% in the data set with HEK293; 41% in data set [4] (filed as antagonist); 3.04% in data set [5]; 29% on P2X purinoceptor 5 [6]; 5.45% with HeLa. The IC50 (commonly the midpoint of a concentration-inhibition curve) at P2X purinoceptor 7 [2] was 18 nM; at P2X purinoceptor 4, 908 nM; on P2X purinoceptor 7 [9] it was 30 nM.
Consider `Cc1ccc(C(=O)Nc2ccc(S(=O)(=O)O)c3cc(S(=O)(=O)O)cc(S(=O)(=O)O)c23)cc1NC(=O)c1cccc(NC(=O)Nc2cccc(C(=O)Nc3cc(C(=O)Nc4ccc(S(=O)(=O)O)c5cc(S(=O)(=O)O)cc(S(=O)(=O)O)c45)ccc3C)c2)c1` [SURAMIN], for which the Activity with HEK293 was 49.01%; in data set [5] it was 11.56%; in the data set on HeLa it was 11.46%. For the same molecule, the IC50 on P2X purinoceptor 5 [1] stood at 15800 nM; on P2X purinoceptor 4, 4730 nM; at P2X purinoceptor 2 it was 14000 nM.
As for `O=C(NC(=S)Nc1ccc(Br)cc1)c1ccc2c(c1)OCO2`, the Activity stood at 2.64% with HEK293; 35% in [4]; 22% in [10]; 31% in data set [11]; 3.72% in data set [5]; 38% on P2X purinoceptor 5 [6]. Besides, in the data set on HeLa, the Activity worked out at 7.64%. Moreover, the half-maximal inhibitory concentration (IC50) on P2X purinoceptor 4 worked out at 14300 nM.
Regarding `O=C(NC(=S)Nc1c(Br)ccc(C(F)(F)F)c1Br)c1ccc2c(c1)OCO2`, the Activity with HEK293 was 7.24%; in data set [4], 38%; in data set [5] it was 7.19%; with HeLa, 5.35%. Besides, the Emax (usually the maximal effect, on the per cent scale that the assay sets) in data set [12] came out at 40%; in [13], 90%; in data set [14], 68%. Moreover, the IC50 was determined as 3560 nM at P2X purinoceptor 7 [2] and 55 nM on P2X purinoceptor 4.
On to `O=C(NC(=S)Nc1cccnc1Cl)c1ccc2c(c1)OCO2`, for which the results for the Activity (in the data set with HEK293; in data set [5]; with HeLa) were 6.15%, 2.82% and 1.94%, respectively. Also, the IC50 came to 34 nM at P2X purinoceptor 7 [2], 935 nM at P2X purinoceptor 4, 34 nM on P2X purinoceptor 7 [9] and 35900 nM on P2X purinoceptor 2.
For `O=C(NC(=S)Nc1ccc(O)cc1)c1ccc2c(c1)OCO2`, the IC50 on P2X purinoceptor 5 [1] was 27600 nM; at P2X purinoceptor 7 [2], 902 nM; on P2X purinoceptor 4, 1450 nM; at P2X purinoceptor 7 [9], 1110 nM.
